Columns and labels:
Abcc2 and Abcc3 = assay: Plasma clearance of CLF in wild type, Abcc2-/- and Abcc3-/- mice; format: in vivo; conditions: single injection of 100 μL 2 mmol/L CLF in the tail vein
Procedure: Wild type, Abcc3^−/− and Abcc2^−/− mice received 100 μL of 2 mmol/L CLF by injection in the tail vein. After the indicated time points blood was drawn. Data are expressed as the mean percentage of the initial CLF level at 2 minutes. Significance was tested using two-sided Student's t-test: *P<0.05 for Abcc2−/− vs wild type mice.
Abcc2^−/− mice (against a Friend virus B-type (FVB) background) were bred at the National Cancer Institute (Amsterdam, The Netherlands). Production and characterization of the Abcc2^−/− mice was as described by Vlaming et al. [J Pharmacol Exp Ther 2006 July; 318(1):319-327]. Wild type and Abcc3^−/− mice (against an FVB background) were bred at the animal institute of the Academic Medical Center. Production and characterization of the Abcc3^−/− mice was as described by Zelcer et al. [J Hepatol 2006 April; 44(4):768-775].
Male mice were housed in a pathogen-free animal facility on a 12 hours light-dark cycle. Mice were anesthetized with a combination of Hypnorm (VetaPharma, UK; 11.8 mg/kg fluanisone and 0.37 mg/kg fentanyl-citrate) and diazepam (Centrafarm, Etten-Leur, The Netherlands; 5.9 mg/kg valium). Body temperature was maintained at 36±1° C. on thermostatted heating pads. […] Blood samples were deproteinised by addition of two volumes methanol and the amount CLF in the supernatant was quantitated by measurement of fluorescence as described above.

ABCB11 = biological target: T1, ABCB11 (Homo sapiens, UniProt O95342); assay: CLF inhibition of TC transport into ABCB11 containing Sf21 membrane vesicles; format: biochemical; conditions: ATP-dependent transport, read-out: concentration of CLF at which half maximal TC transport was observed
T1 construct: His tag (inferred from the anti-his probe used on the Western blot); made in house; host or cells: Sf21 insect cells, baculovirus (gift from Thompson); plasma membrane vesicles
T1 sequence (O95342 whole entry): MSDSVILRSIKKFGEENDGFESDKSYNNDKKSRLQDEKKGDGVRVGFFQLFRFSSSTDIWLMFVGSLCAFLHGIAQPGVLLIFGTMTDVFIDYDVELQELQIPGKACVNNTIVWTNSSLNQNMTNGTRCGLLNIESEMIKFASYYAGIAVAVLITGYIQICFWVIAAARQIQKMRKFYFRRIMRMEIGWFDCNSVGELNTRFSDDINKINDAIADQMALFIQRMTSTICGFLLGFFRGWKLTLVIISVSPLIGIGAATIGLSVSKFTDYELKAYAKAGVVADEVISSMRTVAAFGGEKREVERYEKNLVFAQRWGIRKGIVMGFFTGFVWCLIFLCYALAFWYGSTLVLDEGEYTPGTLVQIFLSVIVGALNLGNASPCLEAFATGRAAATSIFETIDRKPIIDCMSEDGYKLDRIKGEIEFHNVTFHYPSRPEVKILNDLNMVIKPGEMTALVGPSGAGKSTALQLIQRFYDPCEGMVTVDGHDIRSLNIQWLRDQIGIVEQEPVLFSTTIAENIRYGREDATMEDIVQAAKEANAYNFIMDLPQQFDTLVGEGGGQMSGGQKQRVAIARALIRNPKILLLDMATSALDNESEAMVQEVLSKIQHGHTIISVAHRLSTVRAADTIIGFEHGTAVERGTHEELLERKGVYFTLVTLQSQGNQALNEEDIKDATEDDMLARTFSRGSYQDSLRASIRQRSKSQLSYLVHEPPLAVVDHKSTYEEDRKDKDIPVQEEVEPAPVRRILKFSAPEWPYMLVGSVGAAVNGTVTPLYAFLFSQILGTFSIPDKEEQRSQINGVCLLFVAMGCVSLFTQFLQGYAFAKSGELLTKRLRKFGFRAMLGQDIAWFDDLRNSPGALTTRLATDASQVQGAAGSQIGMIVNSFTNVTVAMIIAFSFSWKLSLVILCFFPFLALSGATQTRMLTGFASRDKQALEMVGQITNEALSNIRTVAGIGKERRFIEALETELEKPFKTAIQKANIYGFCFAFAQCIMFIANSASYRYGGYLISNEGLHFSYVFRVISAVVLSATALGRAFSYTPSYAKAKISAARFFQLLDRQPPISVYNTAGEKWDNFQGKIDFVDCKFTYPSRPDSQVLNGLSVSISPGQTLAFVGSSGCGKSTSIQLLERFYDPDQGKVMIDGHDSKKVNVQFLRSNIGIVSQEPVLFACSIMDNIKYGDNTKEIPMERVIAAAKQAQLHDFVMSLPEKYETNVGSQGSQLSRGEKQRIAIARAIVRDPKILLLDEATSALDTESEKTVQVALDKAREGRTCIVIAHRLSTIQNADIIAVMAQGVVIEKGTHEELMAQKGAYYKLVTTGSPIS
Procedure: FIGS. 5A and 5B show CLF inhibition of DNP-SG and TC transport into ABCC2 (A) and ABCB11 (B) protein containing Sf21 membrane vesicles respectively. The values are expressed as a percentage of maximal ATP-dependent transport. Significance was tested using two-sided Student's t-test: *P<0.05 for transport in the presence vs. absence of inhibitor.
The production of recombinant baculovirus was as described by de Waart et al. [Liver Int 2006 April; 26(3):362-368]. ABCC3 and ABCG2-recombinant baculovirus were a kind gift from Borst [Breedveld P. et al., Cancer Res 2004 Aug. 15; 64(16):5804-5811 and Borst P. et al., J Biol Chem 2001 Dec. 7; 276(49):46400-46407.]. ABCB11-recombinant baculovirus was a kind gift from Thompson [Thompson R J et al., Gastroenterology 2002 November; 123(5):1649-1658]. Sf21 cells grown at 27° C. were infected with ABCB11, ABCC2, ABCC3 and ABCG2-cDNA containing baculovirus. Cells were harvested at 2-4 days after infection. […]
Transport studies with membrane vesicles were performed using the rapid filtration technique as described by Heijn M et al. [Am J Physiol 1992 January; 262(1 Pt 1):C104-C110]. Radiolabel was measured with a scintillation counter. […] Samples were pipetted in 96-well plates (Kartell, Noviglio, Italy) and the amount CLF quantitated by measurement of fluorescence at λexe 485 nm and λcm 520 nm using a NovoStar (BMG-labtech, Offenburg, Germany).

SMILES: CC(CCC(=O)NC(CCCCNC(=S)Nc1ccc(-c2c3ccc(=O)cc-3oc3cc(O)ccc23)c(C(=O)O)c1)C(=O)O)C1CCC2C3C(O)CC4CC(O)CCC4(C)C3CC(O)C12C (stereo not drawn) [CLF, cholyl lysyl fluorescein]
- Plasma clearance of CLF in Abcc2-/- mice in comparison with wild type mice (Abcc2 and Abcc3): strongly impaired
- Plasma clearance of CLF in Abcc3-/- mice in comparison with wild type mice (Abcc2 and Abcc3): not affected
- IC50 (ABCB11): ~10 µM

From patent US8318504B2, “MRP2 efflux pathway prognostic method” (priority 2009, dated 2012)
